Source: patent US20130079345A1, “[…] ACTIVE DISUBSTITUTED TRIAZINE DERIVATIVES” (BAYER INTELLECTUAL PROPERTY GMBH, priority 2010, published 2013)
pIC50, pKd: −log10 of the molar value. Structures can show the parent of a compound that is named as a salt. Blank lines part the entries; values can stand above or below the compound they belong to.

Legend:
DU145 cells = assay: Cell viability, DU145 cells; type: cell-based, human
Procedure: (§1) HeLa- or MDAMB468-Cells or MATU ADR, H460, DU145, CACO-2 or B16F10 cells were maintained in RPMI 1640 or McCoy's 5A cell culture medium+glutamine (PAN Biotech GmbH, Aidenbach, Germany; order no. P04-22100; P04-05500) supplemented with 10% fetal calf serum “Gold” (PAA Laboratories GmbH, Pasching, Austria; order no. A15-151) and grown at 37° C., 5% CO2. For the cell viability assay, cells were seeded with a density of 400 (Hela cells, DSMZ Braunschweig order no. ACC57) or 800 (MDAMB468 cells, ATCC order no. HTB-132) per well in 25 μL in 384-well plates (Greiner Bio-One, Frickenhausen, Germany; order no. 781080). After overnight incubation at 37° C./5% CO2, 25 nL or 75 nL compound were added to each sample well by using BIOMEK FXP Laboratory Automation Workstation (Beckman Coulter, USA). Wells with cells and 0.1% or 0.3% DMSO in culture medium were used as positive controls, wells with cells and 10 μM staurosporine in culture medium were used as negative controls. The cells were incubated with the compounds for 72 h at 37° C./5% CO2. For measurement of cell viability […] Cell Titer Glo reagent (Promega, Madison, USA; order no. G7573), 1:2 diluted with cell culture medium, was added to each well. The 384well-plates were placed for 2 min on an orbital microplate shaker and incubated for further 10 min at room temperature to stabilize the luminescence signal. Luminescence was measured by Envision Plate Reader (Perkin Elmer, USA). EC50 values were calculated with the software Excel Fit (IDBS, Guildford, UK) from 3-fold dilution series comprising at least 8 concentrations in duplicates.
(§2) Cultivated tumour cells (NCl-H460, human non-small cell lung carcinoma cells, ATCC HTB-177; DU 145, hormone-independent human prostate carcinoma cells, ATCC HTB-81; HeLa-MaTu, human cervical carcinoma cells, EPO-GmbH, Berlin; HeLa-MaTu-ADR, multidrug-resistant human cervical carcinoma cells, EPO-GmbH, Berlin; HeLa human cervical tumour cells, ATCC CCL-2; Caco-2 human colorectal carcinoma, ATCC HTB-37; B16F10 mouse melanoma cells, ATCC CRL-6475) were plated at a density of 5,000 cells/well (DU145, HeLa-MaTu-ADR), 3,000 cells/well (NCl-H460, HeLa-MaTu, HeLa), 1,500 cells/well (Caco-2), or 1,000 cells/well (B16F10) in a 96-well multititer plate in 200 μL of their respective growth medium supplemented with 10% fetal calf serum. After 24 hours, the cells of one plate (zero-point plate) were stained with crystal violet (see below), while the medium of the other plates was replaced by fresh culture medium (200 μl), to which the test substances were added in various concentrations (0 μM as well as in the range of 0.001 to 10 μM; the final concentration of the solvent dimethyl sulfoxide was 0.5%). The cells were incubated in the presence of test substances for 4 days. Cell proliferation was determined by staining the cells with crystal violet: The cells were fixed by adding 20 μl/measuring point of an 11% glutaric aldehyde solution at room temperature for 15 minutes. After three washing cycles of the fixed cells with water, the plates were dried at room temperature. […] The extinction was determined by photometry at a wavelength of 595 nm. The change of cell number, in percent, was calculated by normalization of the measured values to the extinction values of the zero-point plate (equivalent to 0%) and the extinction of the untreated (0 μm) cells (equivalent to 100%). The IC50 values were determined by means of a 4 parameter fit using the company's own software.

H460 cells = assay: Cell viability, H460 cells; type: cell-based, human
Procedure: as §1, §2

MaTu/ADR cells = assay: Cell viability, MaTu/ADR cells; type: cell-based; conditions: Homo sapiens
Procedure: HeLa- or MDAMB468-Cells or MATU ADR, H460, DU145, CACO-2 or B16F10 cells were maintained in RPMI 1640 or McCoy's 5A cell culture medium+glutamine (PAN Biotech GmbH, Aidenbach, Germany; order no. P04-22100; P04-05500) supplemented with 10% fetal calf serum “Gold” (PAA Laboratories GmbH, Pasching, Austria; order no. A15-151) and grown at 37° C., 5% CO2. For the cell viability assay, cells were seeded with a density of 400 (Hela cells, DSMZ Braunschweig order no. ACC57) or 800 (MDAMB468 cells, ATCC order no. HTB-132) per well in 25 μL in 384-well plates (Greiner Bio-One, Frickenhausen, Germany; order no. 781080). After overnight incubation at 37° C./5% CO2, 25 nL or 75 nL compound were added to each sample well by using BIOMEK FXP Laboratory Automation Workstation (Beckman Coulter, USA). Wells with cells and 0.1% or 0.3% DMSO in culture medium were used as positive controls, wells with cells and 10 μM staurosporine in culture medium were used as negative controls. The cells were incubated with the compounds for 72 h at 37° C./5% CO2. For measurement of cell viability […] Cell Titer Glo reagent (Promega, Madison, USA; order no. G7573), 1:2 diluted with cell culture medium, was added to each well. The 384well-plates were placed for 2 min on an orbital microplate shaker and incubated for further 10 min at room temperature to stabilize the luminescence signal. Luminescence was measured by Envision Plate Reader (Perkin Elmer, USA). […]
as §2, with “After 24 hours, the cells of one plate (zero-point plate) were stained with crystal violet (see below), while the medium of the other plates was replaced by fresh culture medium (200 μl), to which the test substances were added in various concentrations (0 μM as well as in the range of 0.001 to 10 μM; the final concentration of the solvent dimethyl sulfoxide was 0.5%). The cells were incubated in the presence of test substances for 4 days.” left out, “minutes.” for “minutes. After three washing cycles of the fixed cells with water, the plates were dried at room temperature.”

MDAMB468 cells = assay: Cell viability assay, MDAMB468 cells; type: cell-based; conditions: Homo sapiens, MDA-MB-468, 72 h, Cell Titer Glo
Procedure: as §1

CDK8/Cyclin C = biological target: T1, CDK8/Cyclin C (Homo sapiens, UniProt P49336); assay: LanthaScreen Eu Kinase Binding Assay, CDK8; conditions: tracer 236, read-out: Affinity (Kd) CDK8
T1 construct: purchased Invitrogen
T1 sequence (P49336 whole entry): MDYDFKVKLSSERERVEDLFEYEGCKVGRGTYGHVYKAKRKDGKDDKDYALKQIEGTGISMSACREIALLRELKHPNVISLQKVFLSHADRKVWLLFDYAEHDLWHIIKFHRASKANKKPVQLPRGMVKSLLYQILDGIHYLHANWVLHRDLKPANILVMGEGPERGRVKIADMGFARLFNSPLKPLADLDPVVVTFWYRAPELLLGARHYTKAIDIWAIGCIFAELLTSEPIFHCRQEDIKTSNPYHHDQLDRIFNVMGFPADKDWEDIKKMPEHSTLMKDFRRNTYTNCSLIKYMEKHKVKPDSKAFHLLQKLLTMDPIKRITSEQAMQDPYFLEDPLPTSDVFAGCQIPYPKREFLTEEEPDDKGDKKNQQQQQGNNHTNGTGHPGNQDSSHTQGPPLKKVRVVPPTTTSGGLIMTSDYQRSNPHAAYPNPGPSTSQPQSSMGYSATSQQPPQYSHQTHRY
T1 sequence (P24863 whole entry partner): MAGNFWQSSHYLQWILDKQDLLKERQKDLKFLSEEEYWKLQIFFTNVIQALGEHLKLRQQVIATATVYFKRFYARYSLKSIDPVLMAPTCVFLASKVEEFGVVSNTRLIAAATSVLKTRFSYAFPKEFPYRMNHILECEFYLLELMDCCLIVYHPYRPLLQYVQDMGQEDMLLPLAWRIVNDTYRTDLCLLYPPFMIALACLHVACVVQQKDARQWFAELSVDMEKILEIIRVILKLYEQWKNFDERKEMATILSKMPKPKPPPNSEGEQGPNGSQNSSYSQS
Procedure: This protocol describes how the LanthaScreen Eu Kinase Binding Assay was performed to determine dissociation constants (Kd) of compounds of general formula (I) and CDK/Cyclin complexes. The principle behind this assay is based upon the binding and displacement of an Alexa Fluor 647-labeled tracer, which binds to the active site of kinases. Binding of the tracer to the kinase is detected using a Eu-labeled antibody. Simultaneous binding of both the tracer and antibody to the kinase gives rise to a FRET-signal. Binding of an inhibitor to the kinase competes for binding with the tracer, resulting in a loss of FRET.
The compounds of general formula (I) summarized in Table 1 were diluted from a 10 mM DMSO stock solution 1:10 in a total volume of 15 μL DMSO. This compound predilution was then serial diluted 1:3 over 8 steps in DMSO and briefly spun down. Each compound solution was now diluted 1:33.33 in kinase buffer (HEPES: 20 mM, pH: 8.0; MgCl2: 10 mM; DTT: 1 mM; Brij-35: 0.01%), mixed thoroughly and spun down. For every sample, 5 μL of the diluted compound were mixed with 5 μL tracer working solution (e.g. 60 nM tracer 236 in kinase buffer for CDK2/Cyclin A) and 5 μL CDK/Cyclin/Anti-GST-AB-working solution (e.g. 15 nM CDK2/Cyclin A, 1:250 dilution of Anti-GST-AB in kinase buffer) in a well of a small volume 384 well plate (Corning Incorporated, Corning, N.Y., USA; order no. 3673). […] For positive controls, in each well 5 μL of DMSO working solution (3% DMSO diluted in kinase buffer) was mixed with 5 μL CDK/Cyclin/Anti-GST-AB-working solution: (e.g. 15 nM CDK2/Cyclin A, 1:250 dilution of Anti-GST-AB in kinase buffer) and 5 μL Tracer working solution (e.g. 60 nM Tracer 236 in kinase buffer for CDK2/Cyclin A). Positive and negative controls were calculated from at least 8 different sample wells. The 384 well plates were mixed in a Teleshaker plate mixer (Beckman Coulter, Brea, Calif., USA) at 2000 rpm for 40 sec, and incubated for 1 h at room temperature before reading. The FRET signal was measured at 340 nm excitation, 665 nm and 615 nm emission (for the kinase tracer and LanthaScreen Eu-AB, respectively) with an Envision spectrophotometer (Perkin Elmer, Waltham, Mass., USA) with 50 μs delay and 300 μs integration time. Kd values were determined from the sigmoidal dose response curves with the software Quattro Workflow (Quattro GmbH, Munich, Germany).

- pIC50 (DU145 cells; Homo sapiens, DU-145): 5.82
- pIC50 (H460 cells; Homo sapiens, NCI-H460): 5.89
- pIC50 (MDAMB468 cells): 6.38
Compound: COc1cc(F)ccc1-c1ncnc(Nc2cccc(CS(N)(=O)=O)c2)n1 [Compound B2, 3-[(4-(4-Fluoro-2-methoxyphenyl)-1,3,5-triazin-2-yl)amino]benzenemethanesulfonamide]
- pIC50 (MaTu/ADR cells): 6.00

- pKd (CDK8/Cyclin C): < 5.00
Compound: CCOc1ccccc1-c1ncnc(Nc2cccc(CS(N)(=O)=O)c2)n1 [Compound B12, 3-[(4-(2-Ethoxyphenyl)-1,3,5-triazin-2-yl)amino]benzenemethanesulfonamide]

- pKd (CDK8/Cyclin C): 5.24
Compound: NS(=O)(=O)Cc1cccc(Nc2ncnc(-c3ccccc3Oc3ccccc3)n2)c1 [Compound B14, 1-(3-{[4-(2-phenoxyphenyl)-1,3,5-triazin-2-yl]amino}phenyl)methanesulfonamide]

- pIC50 (MDAMB468 cells): 4.88
Compound: COc1ccccc1-c1ncnc(Nc2ccccc2)n1 [Compound P1, 4-(2-Methoxyphenyl)-N-phenyl-1,3,5-triazine-2-amine]

- pIC50 (MDAMB468 cells): 5.34
Compound: COc1ccccc1-c1ncnc(Nc2cccc(CCS(N)(=O)=O)c2)n1 [Compound D1, 2-[3-((4-(2-Methoxyphenyl)-1,3,5-triazin-2-yl)amino)phenyl]ethanesulfonamide]

- pKd (CDK8/Cyclin C): < 5.00
Compound: COc1cccc(F)c1-c1ncnc(Nc2cccc(CS(N)(=O)=O)c2)n1 [Compound B4, 3-[(4-(6-Fluoro-2-methoxyphenyl)-1,3,5-triazin-2-yl)amino]benzenemethanesulfonamide]

- pIC50 (MDAMB468 cells): 6.08
Compound: COc1ccccc1-c1ncnc(Nc2cccc([N+](=O)[O-])c2)n1 [Compound H1, 4-(2-Methoxyphenyl)-N-(3-nitrophenyl)-1,3,5-triazine-2-amine]

- pKd (CDK8/Cyclin C): 5.17
Compound: COc1cc(Cl)ccc1-c1ncnc(Nc2cccc(CS(N)(=O)=O)c2)n1 [Compound B6, 3-[(4-(4-Chloro-2-methoxyphenyl)-1,3,5-triazin-2-yl)amino]benzenemethanesulfonamide]

- pIC50 (MDAMB468 cells): 5.35
Compound: CCCS(=O)(=O)Nc1cccc(Nc2ncnc(-c3ccccc3OC)n2)c1 [Compound L1, N-[3-((4-(2-Methoxyphenyl)-1,3,5-triazin-2-yl)amino)phenyl]-propanesulfonamide]

- pKd (CDK8/Cyclin C): < 5.00
Compound: NS(=O)(=O)Cc1cccc(Nc2ncnc(-c3ccccc3OCc3ccncc3)n2)c1 [Compound B16, 3-[(4-(2-((4-Pyridinyl)methoxy)phenyl)-1,3,5-triazin-2-yl)amino]benzenemethanesulfonamide]

More lines, now with the values behind:

Compound: NS(=O)(=O)Cc1cccc(Nc2ncnc(-c3ccccc3OCc3ccccc3)n2)c1 [B13′, 3-[(4-(2-Benzyloxyphenyl)-1,3,5-triazin-2-yl)amino]benzenemethanesulfonamide trifluoroacetic acid salt]
- pIC50 (DU145 cells; Homo sapiens, DU-145): 6.48
- pKd (CDK8/Cyclin C): 5.31
- pIC50 (H460 cells; Homo sapiens, NCI-H460): 6.49
- pIC50 (MaTu/ADR cells): 6.54
- pIC50 (MDAMB468 cells): 6.80

Compound: COc1cc(F)ccc1-c1ncnc(Nc2cccc(CS(N)(=O)=O)c2)n1 [B2″, 1-(3-{[4-(4-fluoro-2-methoxyphenyl)-1,3,5-triazin-2-yl]amino}phenyl)methanesulfonamide trifluoroacetic acid salt]
- pKd (CDK8/Cyclin C): < 5.00

Compound: COc1ccccc1-c1ncnc(Nc2cccc(CS(N)(=O)=O)c2)n1 [B1′, 3-[(4-(2-Methoxyphenyl)-1,3,5-triazin-2-yl)amino]benzenemethanesulfonamide trifluoroacetic acid salt]
- pIC50 (DU145 cells; Homo sapiens, DU-145): 5.42
- pIC50 (H460 cells; Homo sapiens, NCI-H460): 5.46
- pIC50 (MaTu/ADR cells): 5.49
- pIC50 (MDAMB468 cells): 5.52

Compound: COc1cc(F)ccc1-c1ncnc(Nc2cccc(CS(N)(=O)=O)c2)n1 [B2′, 1-(3-{[4-(4-fluoro-2-methoxyphenyl)-1,3,5-triazin-2-yl]amino}phenyl)methanesulfonamide hydrochloride]
- pIC50 (DU145 cells; hydrochloride): 6.00
- pIC50 (H460 cells; hydrochloride): 5.82

Compound: COc1ccccc1-c1ncnc(Nc2cccc(S(N)(=O)=O)c2)n1 [C1′, 3-[(4-(2-Methoxyphenyl)-1,3,5-triazin-2-yl)amino]benzenesulfonamide trifluoroacetic acid salt]
- pIC50 (DU145 cells; Homo sapiens, DU-145): 6.00
- pIC50 (H460 cells; Homo sapiens, NCI-H460): 5.96
- pIC50 (MaTu/ADR cells): 6.12
- pIC50 (MDAMB468 cells): 6.10
